{"source": "patent US10682420B2", "about": "“Breast cancer therapy based on hormone receptor status with nanoparticles comprising taxane” (Abraxis BioScience, LLC, priority 2006, dated 2020)", "key": {"[1]": {"conditions": "mouse, in vivo", "source_text": "Methods: Toxicity of Abraxane® and Taxotere® was compared in a dose-ranging study in nude mice given the drugs on a q4d×3 schedule."}, "[2]": {"tested_on": "cells", "test": "In vitro clonogenic assay", "assay_type": "cell-based", "procedure": "Cells were treated with saline control, Abraxane® alone, VEGF-A alone, Avastin® alone, Abraxane®+VEGF-A or Abraxane®+Avastin®."}, "[3]": {"tested_on": "Luciferase-expressing MDA-MB-231 human breast cancer xenografts", "test": "Abraxane and Avastin on growth of luciferase-expressing MDA-MB-231 xenografts", "assay_type": "in vivo, female nude (nu/nu) mice", "procedure": "Abraxane®, either alone or in combination, was administered at 10 mg/kg/day daily for 5 days in two cycles separated by 1 week. Some groups were administered Abraxane® at 10 mg/kg daily for 5 days for only one cycle. […] Mice were monitored for tumor growth and drug toxicity. Mice were sacrificed when the mean tumor volume in the saline-treated control group reached 2000 mm^3.\nTumor growth inhibition (TGI) was calculated by comparing mean tumor volume of test groups to that of the control group at the last measurement of the control group."}, "[4]": {"tested_on": "cells", "test": "In vitro cellular cytotoxicity assay", "assay_type": "cell-based", "conditions": "Abraxane 1 to 24 nM", "procedure": "Cells were treated with Abraxane® in a range of concentrations (1 to 24 nM)."}, "[5]": {"tested_on": "metastasis of luciferase-expressing MDA-MB-231 tumor cells to the lymph nodes and lungs", "test": "Abraxane and Avastin on metastasis by luciferase activity", "assay_type": "in vivo, female nude (nu/nu) mice", "procedure": "Abraxane®, either alone or in combination, was administered at 10 mg/kg/day daily for 5 days in two cycles separated by 1 week. Some groups were administered Abraxane® at 10 mg/kg daily for 5 days for only one cycle. […] Mice were sacrificed when the mean tumor volume in the saline-treated control group reached 2000 mm^3. Axillary lymph nodes and both lobes of the lungs were removed from each mouse and cellular extracts were prepared. The presence of MDA-MB-231 cells in these tissues was evaluated by analysis of luciferase activity and was an indicator of metastasis from the primary tumor. Luciferase activity was measured in extracts from 10 lymph nodes and both lobes of the lungs on the day of sacrifice (day 65 after tumor implantation). A value greater than 500 light units per 20 μl lysate was rated as positive for presence of MDA-MB-231 cells and for incidence of metastasis.\nAs used herein, incidence refers to the presence of luciferase activity in tissue from each mouse."}, "[6]": {"tested_on": "metastatic breast cancer", "conditions": "in vivo", "source_text": "Patients were HER-2/neu negative with a life expectancy of greater than 3 months. Patients had no prior chemotherapy for metastatic disease, no prior capecitabine therapy, and no prior fluoropyrimidine therapy and paclitaxel chemotherapy given in an adjuvant setting.\nThe primary endpoint was objective response rate and safety/toxicity, with evaluation performed after every 2 cycles. A secondary endpoint was time to progression."}, "[7]": {"tested_on": "MDA-MB-435 human breast tumor xenografts", "test": "HKP and Abraxane in MDA-MB-435 xenografts", "assay_type": "in vivo, mice", "conditions": "nineteen weeks of treatment; HKP 250 ug i.v. weekly x16; Abraxane 10 mg/kg/day i.v. x5 days", "text": "The antiangiogenic activity of small synthetic pro-apoptotic peptides composed of two functional domains, one targeting the CD13 receptors (aminopeptidase N) on tumor microvessels and the other disrupting the mitochondrial membrane following internalization have previously been reported. See Nat Med. 1999 September; 5(9): 1032-8.\nMethods: MDA-MB-435 human tumor xenografts were established at an average tumor volume of 100 mm^3, mice were randomized into groups of 12-13 animals and treated with HKP, Abraxane®, or HKP and Abraxane®. HKP was delivered i.v. (250 ug), once a week, for 16 weeks. Abraxane® was administered i.v., daily for 5 days at 10 mg/kg/day only for the first week of treatment. The Abraxane® dose used was substantially below its MTD (30 mg/kg/day, qd×5) to prevent the tumor from complete regression so effect of HKP could be noted."}}, "data": [{"molecule": "Taxotere®", "values": [{"measurement": "maximum tolerated dose (MTD)", "setting": "[1]", "value": 15, "unit": "mg/kg"}]}, {"molecule": "Avastin®: anti-VEGF antibody", "values": [{"measurement": "number of colonies formed", "setting": "[2]", "value": "slight reduction in the number of colonies formed"}, {"measurement": "% TGI", "setting": "[3]; Avastin Dose 4 mg/kg", "value": 12.56, "unit": "%"}, {"measurement": "Mean Tumor Volume (mm^3)", "setting": "[3]; Avastin Dose 4 mg/kg twice a week for 6 weeks", "value": "2089 ± 251", "unit": "mm^3"}, {"measurement": "% Complete Regression", "setting": "[3]; Avastin Dose 4 mg/kg, day 65", "value": 0, "unit": "%"}, {"measurement": "effect of addition on in vitro cytotoxicity of Abraxane", "setting": "[4]", "value": "increased the in vitro cytotoxicity of Abraxane®"}, {"measurement": "metastasis by luciferase activity in tissue extracts", "setting": "[5]", "value": "did not significantly inhibit metastasis"}]}, {"molecule": "CCCCCOC(=O)Nc1nc(=O)n([C@@H]2O[C@H](C)[C@@H](O)[C@H]2O)cc1F", "note": "[capecitabine]", "values": [{"measurement": "main toxicity related to the agent within the combination", "setting": "[6]", "value": "hand foot syndrome"}]}, {"molecule": "CNGRC-GG-d(KLAKLAK)2 [HKP]", "values": [{"measurement": "tumor volume", "setting": "[7]", "value": "4,372 mm^3"}]}]}
